Laboratory results reported in article PMC8270315, “Combination of Heme Oxygenase-1 Inhibition and Sigma Receptor Modulation for Anticancer Activity” (Molecules, 2021).
Read-outs that look alike come from different tables or passages of the source.

Legend:
[1] = biological target: T1, σ2R (Rattus norvegicus, UniProt Q5U3Y7); experiment: σ2R radioligand binding assay, [3H]DTG, rat liver membranes
T1 construct: from tissue; host or cells: liver membranes of Sprague-Dawley rats (animals from ENVIGO RMS S.R.L.)
T1 sequence (Q5U3Y7 1-176): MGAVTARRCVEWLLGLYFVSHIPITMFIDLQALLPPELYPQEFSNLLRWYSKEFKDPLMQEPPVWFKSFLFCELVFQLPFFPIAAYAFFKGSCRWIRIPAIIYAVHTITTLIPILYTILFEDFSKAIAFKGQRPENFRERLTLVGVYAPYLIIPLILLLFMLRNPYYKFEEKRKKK
Description: (§1) All new synthesized HO-1/σ hybrids 1–4 were evaluated for affinity at both the σ1R and the σ2R, through radioligand binding assay.
(§2) Brain and liver homogenates for σ1R and σ2R binding assays were prepared from male Dunkin–Hartley guinea pigs and Sprague–Dawley rats, respectively, (ENVIGO RMS S.R.L., Udine, Italy) as previously reported [54]. In vitro σ1R ligand binding assays were carried out in Tris buffer (50 mM, pH 7.4) for 150 min at 37 °C. […] Bound and free radioligand were separated by fast filtration under reduced pressure using a Millipore filter apparatus through Whatman GF 6 glass fiber filters, which were presoaked in a 0.5% poly(ethyleneimine) water solution. Each filter paper was rinsed three times with ice-cold Tris buffer (50 mM, pH 7.4), dried at rt, and incubated overnight with scintillation fluid into pony vials. The bound radioactivity has been determined using a liquid scintillation counter (Beckman LS 6500) [55]. In vitro σ2R ligand binding assays were carried out in Tris buffer (50 mM, pH 8.0) for 120 min at rt. […] Bound and free radioligand were separated by fast filtration under reduced pressure using a Millipore filter apparatus through Whatman GF 6 glass fiber filters, which were presoaked in a 0.5% poly(ethyleneimine) water solution. Each filter paper was rinsed three times with ice-cold Tris buffer (10 mM, pH 8), dried at rt, and incubated overnight with scintillation fluid into pony vials. The bound radioactivity was determined using a liquid scintillation counter (Beckman LS 6500) [56]. The Ki-values were calculated with the program GraphPad Prism® 7.0 (GraphPad Software, San Diego, CA, USA). The Ki-values are given as mean value ± SD from at least two independent experiments performed in duplicate.

[2] = biological target: T2, σ1R (Cavia porcellus, UniProt Q60492); experiment: σ1R radioligand binding assay, [3H](+)-pentazocine, guinea pig brain cortex membranes; conditions: for inhibition at 10 µM: read-out: σ1R % of inhibition at 10 μM
T2 construct: The thawed membrane preparation of guinea pig brain cortex was incubated with increasing concentrations of test compounds; from tissue; host or cells: brain cortex membranes of male Dunkin-Hartley guinea pigs (animals from ENVIGO RMS S.R.L.)
Description: as §1, §2

[3] = biological target: T3, HO-1 (Rattus norvegicus, UniProt P06762); experiment: HO-1 inhibition, bilirubin formation in rat spleen microsomal fraction; assay type: biochemical; conditions: Table S1
T3 construct: selected in order to use the most native (i.e., closest to in vivo) forms of HO-1; from tissue; host or cells: spleen microsomal fraction of male Sprague-Dawley rats
T3 sequence (P06762 1-289): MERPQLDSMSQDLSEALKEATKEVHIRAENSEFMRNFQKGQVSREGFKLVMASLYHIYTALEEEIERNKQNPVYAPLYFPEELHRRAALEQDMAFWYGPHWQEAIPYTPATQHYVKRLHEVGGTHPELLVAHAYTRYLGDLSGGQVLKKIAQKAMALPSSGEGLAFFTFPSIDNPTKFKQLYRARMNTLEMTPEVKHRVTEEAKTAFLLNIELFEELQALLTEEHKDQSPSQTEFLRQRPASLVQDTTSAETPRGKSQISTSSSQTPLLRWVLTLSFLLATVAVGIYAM
Description: The new HO-1/σRs hybrids 1–4 were tested to evaluate their HO-1 inhibitory activity. The enzyme was obtained from the microsomal fractions of rat spleen. Determination of HO-1 activity was performed by measuring the bilirubin formation using the difference in absorbance at 464–530 nm, as reported in the experimental section. Compounds LS/0, LS4/28, LS6/42 and azalanstat were used as reference substances. We focused our attention on HO-1, since only this inducible isoform is involved in tumorigenesis and in tumor progression.
Microsomal fractions obtained from rat spleen were used as sources of HO-1. Microsomal preparations obtained by differential centrifugation, were selected in order to use the most native (i.e., closest to in vivo) forms of HO-1. The experiments reported in the present paper complied with current Italian law and met the guidelines of the Institutional Animal Care and Use Committee of Ministry of Health (Directorate General for Animal Health and Veterinary Medicines) (Italy). The experiments were performed in male Sprague–Dawley albino rats (150 g body weight and age 45 d). They had free access to water and were kept at room temperature with a natural photo-period (12 h light, 12 h dark cycle). For measuring HO-1 activities, each rat was sacrificed and their spleens were excised and weighed. A homogenate (15%, w/v) of spleens pooled from four rats was prepared in ice-cold HO-homogenizing buffer (50 mM Tris buffer, pH 7.4, containing 0.25 M sucrose) using a Potter–Elvehjem homogenizing system with a Teflon pestle. The microsomal fraction of rat spleen homogenate was obtained by centrifugation at 10,000× g for 20 min at 4 °C, followed by centrifugation of the supernatant at 100,000× g for 60 min at 4 °C. The 100,000g pellet (microsomes) was resuspended in an 100 mM potassium phosphate buffer, pH 7.8, containing 2 mM MgCl2 with a Potter–Elvehjem homogenizing system. The rat spleen microsomal fractions were divided into equal aliquots, placed into microcentrifuge tubes, and stored at −80 °C for up to 2 months.
Biliverdin reductase was obtained from liver cytosol. Rat liver was perfused through the hepatic portal vein with cold 0.9% NaCl, then it was cut and flushed with 2 × 20 mL of ice-cold PBS to remove all of the blood. Liver tissue was homogenized in 3 volumes of solution containing 1.15% KCl w/v and Tris buffer 20 mM, pH 7.8 on ice. Homogenates were centrifuged at 10,000× g, for 20 min at 4 °C. Supernatant was decanted and centrifuged at 100,000× g for 1 h at 4 °C to sediment the microsomes. The 100,000× g supernatant was saved and then stored in small amounts at −80 °C after its protein concentration was measured.
The HO-1 activities were determined by measuring the bilirubin formation using the difference in absorbance at 464–530 nm. Reaction mixtures (500 µL) contained 20 mM Tris–HCl, pH 7.4, (1 mg/mL) microsomal extract, 0.5–2 mg/mL biliverdin reductase, 1 mM NADPH, 2 mM glucose 6-phosphate (G6P), 1 U G6P dehydrogenase, 25 μM hemin, and 10 µL of DMSO (or the same volume of DMSO solution of test compounds to a final concentration of 100, 10, and 1 µM). Samples were incubated for 60 min at 37 °C in a circulating water bath in the dark. Reactions were stopped by adding the same volume of chloroform. After recovering the chloroform phase, the amount of bilirubin formed was measured with a double-beam spectrophotometer as OD464–530 nm (extinction coefficient, 40 mM/cm^−1 for bilirubin). […]

[4] = test system: U87MG cells; experiment: MTT cell viability assay, U87MG cells; assay type: cell-based, human; conditions: for effect on U87MG cell viability (in words): U87MG, 1, 10 and 50 μM; for effect of co-administration on U87MG cell viability (in words): 10 μM σR ligand plus 10 μM HO-1 inhibitor, compared with σR ligand alone
Description: In particular, we used the human glioblastoma cell line U87MG (ATCCC number #HTB-14) and the prostate cancer cell line DU145 (ATCC HTB-81). These cell lines were obtained from the American Type Culture Collection (ATCC, Rockville, Md., USA). Cells were cultured in Dulbecco’s modified Eagle’s medium (DMEM) supplemented with 10% of heat-inactivated fetal bovine serum (FBS), 100 U/mL penicillin and 100-μg/mL streptomycin (Sigma-Aldrich, Steinheim, Germany) and incubated at 37 °C in a humidified atmosphere with 5% CO2.
The cytotoxicity of HO-1 inhibitors and σR ligands previous synthesized compounds as well as novel HO-1/σR hybrids compounds were evaluated. The effect on cell viability was assessed by performing MTT assay. Cells were seeded into 96-well plates at a density of 7.0 × 10^3 cells/well in 100 µL of culture medium. The day after, cells were treated with each molecule at three different concentrations (1 µM, 10 µM and 50 µM) for 72 h. Following treatments, 0.5 mg/mL of 3-[4,5-dimethylthiazol-2-yl]-2,5-diphenyltetrazolium bromide (MTT) (Sigma-Aldrich) was added to each well and incubated for 4 h at 37 °C. Finally, dimethyl-sulfoxide (DMSO) was used to dissolve formazan salts and absorbance was measured at 450 nm in a microplate reader (Biotek Synergy-HT). Six replicate wells were used for each group.

[5] = test system: DU145 cells; experiment: MTT cell viability assay, DU145 cells; assay type: cell-based, human; conditions: DU145, single compound 10 μM, 72 h
Source text: In some types of human prostate and brain cancers, both HO-1 and σRs are overexpressed, influencing cancer cell proliferation. Consequently, σR ligands and HO-1 inhibitors may have anticancer activity. Literature data highlight the potential antiproliferative activity of various σ1R ligands in highly diffusive glioblastoma and prostate cancer cells, likely by interfering with the progression of cell cycle and decreasing the migration of cancer cells. Likewise, HO-1 inhibition hinders cancer progression, mainly by decreasing CO-mediated angiogenesis and disrupting the antioxidant HO-1 activity. […] Cytotoxicity of all new and previous synthesized compounds were evaluated in vitro via MTT assay. The cell viability of DU145 and U87-MG cells was assessed after 72 h of continuous treatment with all tested compounds, at the concentrations of 1, 10, and 50 μM. […]
The cytotoxicity of HO-1 inhibitors and σR ligands previous synthesized compounds as well as novel HO-1/σR hybrids compounds were evaluated. The effect on cell viability was assessed by performing MTT assay. […] Finally, dimethyl-sulfoxide (DMSO) was used to dissolve formazan salts and absorbance was measured at 450 nm in a microplate reader (Biotek Synergy-HT). […]

[6] = test system: HO-2; design: method as in PMID 29783634, PMID 23867390, PMID 32056044, PMID 32168943, PMID 32222619; conditions: Figure 1, previously demonstrated; cited from earlier work
[7] = biological target: T1, σ2R; conditions: Table S1; ref [4, 5] of the supplement; cited from earlier work

T2 sequence (Q60492 whole entry): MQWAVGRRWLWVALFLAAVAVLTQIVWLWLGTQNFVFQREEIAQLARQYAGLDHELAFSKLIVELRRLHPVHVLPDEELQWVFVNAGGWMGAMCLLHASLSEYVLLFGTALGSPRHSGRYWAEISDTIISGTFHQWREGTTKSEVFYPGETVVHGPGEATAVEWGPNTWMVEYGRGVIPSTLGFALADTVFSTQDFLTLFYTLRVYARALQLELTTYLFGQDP

| SMILES | Ki [1] [µM] | inhibition at 10 µM [1] [%] | Ki [2] [µM] | inhibition at 10 µM [2] [%] | IC50 [3] [µM] | effect on U87MG cell viability (in words) ([4]; 72 h, MTT) | IC50 [6] [µM] | also measured |
| --- | --- | --- | --- | --- | --- | --- | --- | --- |
| O=C(c1ccc(OCCCCn2ccnc2)cc1)N1CCN(Cc2ccccc2)CC1 [Compound 1, (4-(4-(1H-imidazol-1-yl)butoxy)phenyl)(4-benzylpiperazin-1-yl)methanone] | > 10 | 54 | > 10 | 90 | 230 ± 5.1 | reduced U87MG cell viability at all concentrations, especially at 50 μM | – | – |
| O=C(Cc1ccc(OCCCCn2ccnc2)cc1)N1CCN(Cc2ccccc2)CC1 [Compound 2, 2-(4-(4-(1H-imidazol-1-yl)butoxy)phenyl)-1-(4-benzylpiperazin-1-yl)ethan-1-one] | > 10 | 67 | > 10 | 73 | 216 ± 3.6 | reduced U87MG cell viability at all concentrations, especially at 50 μM | – | – |
| O=C(CCc1ccc(OCCCCn2ccnc2)cc1)N1CCN(Cc2ccccc2)CC1 [Compound 3, 3-(4-(4-(1H-imidazol-1-yl)butoxy)phenyl)-1-(4-benzylpiperazin-1-yl)propan-1-one] | > 10 | 66 | > 10 | 78 | 162 ± 1.8 | less efficacy than the control at 1 μM | – | – |
| O=C(CCCc1ccc(OCCCCn2ccnc2)cc1)N1CCN(Cc2ccccc2)CC1 [Compound 4, 4-(4-(4-(1H-imidazol-1-yl)butoxy)phenyl)-1-(4-benzylpiperazin-1-yl)butan-1-one] | 4.62 | – | > 10 | 55 | 87.7 ± 1.3 | reduced U87MG cell viability at all concentrations, especially at 50 μM | – | IC50 HO-1 [3]: the most potent compound among the series |
| O=C(CCCN1CCC(O)(c2ccc(Cl)cc2)CC1)c1ccc(F)cc1 [Haloperidol, haloperidol] | – | – | – | – | – | high efficacy in downregulation of cell viability | – | reduction of cell viability [5]: about 50% |
| OC(Cn1ccnc1)c1cccc(-c2ccccc2)c1 (stereo not shown) [LS4/28] | – | – | – | – | – | did not affect U87MG cell viability | > 100 | – |
| OC(Cn1ccnc1)c1ccc(CCc2ccc(Br)cc2)cc1 (stereo not shown) [LS6/42] | – | – | – | – | – | – | > 100 | reduction of cellular viability ([4]; U87MG, single compound 10 μM, 72 h, MTT): about 50% |
| Brc1cccc(OCCCCn2ccnc2)c1 [LS/0] | – | – | – | – | – | significantly reduce cell viability only at 50 μM | 2.2 ± 0.2 | – |
| COc1ccc(CN2CCN(C(=O)CCc3ccccc3)CC2)cc1 [RFB/13] | – | – | – | – | – | significantly reduce cell viability only at 50 μM | – | effect of co-administration on U87MG cell viability (in words) ([4]; U87MG): significantly reduced for compound RFB/13 only when combined with LS4/28 or LS6/42 |
| COc1ccc(CN2CCN(C(=O)CCC3CCCCC3)CC2)cc1 [SI1/13] | – | – | – | – | – | high efficacy in downregulation of cell viability | – | Ki [7]: 1420 nM; effect of co-administration on U87MG cell viability (in words) ([4]; U87MG): increased by the addition of all the tested HO-1 inhibitors |
